Key:
[1] = system: barnyardgrass (Echinochloa crus-galli); experiment: Test B flooded paddy test, barnyardgrass; conditions: Echinochloa crus-galli, read-out: Plant response rating, Barnyardgrass (0 to 100 scale, 0 is no effect, 100 is complete control)
corn (Zea mays) = experiment: Test A postemergence, corn; assay type: in vivo; conditions: Zea mays, post-emergence, 240 h, 0 to 100 scale (0 no effect, 100 complete control); for Corn plant response rating (crop injury, 0 = no effect, 100 = complete kill) at 31 g/ha: 31 g ai/ha; for Corn plant response rating (crop injury, 0 = no effect, 100 = complete kill) at 125 g/ha: 125 g ai/ha
[2] = system: blackgrass (Alopecurus myosuroides); experiment: Test A postemergence, blackgrass; assay type: in vivo; conditions: Alopecurus myosuroides, post-emergence, 240 h, 0 to 100 scale (0 no effect, 100 complete control), read-out: Plant response rating, Blackgrass; for pest or weed control at 31 g/ha: 31 g ai/ha; for pest or weed control at 125 g/ha: 125 g ai/ha
[3] = system: barnyardgrass (Echinochloa crus-galli); experiment: Test A postemergence, barnyardgrass; assay type: in vivo; conditions: Echinochloa crus-galli, post-emergence, 240 h, 0 to 100 scale (0 no effect, 100 complete control), read-out: Plant response rating, Barnyardgrass; for pest or weed control at 31 g/ha: 31 g ai/ha; for pest or weed control at 125 g/ha: 125 g ai/ha
[4] = system: ragweed (common ragweed, Ambrosia elatior); experiment: Test A postemergence, ragweed; assay type: in vivo; conditions: Ambrosia artemisiifolia, post-emergence, 240 h, 0 to 100 scale (0 no effect, 100 complete control), read-out: Plant response rating, Ragweed; for pest or weed control at 31 g/ha: 31 g ai/ha; for pest or weed control at 125 g/ha: 125 g ai/ha
[5] = system: ragweed (common ragweed, Ambrosia elatior); experiment: Test A preemergence, ragweed; assay type: in vivo; conditions: Ambrosia artemisiifolia, pre-emergence, 240 h, 0 to 100 scale (0 no effect, 100 complete control), read-out: Plant response rating, Ragweed; for pest or weed control at 31 g/ha: 31 g ai/ha; for pest or weed control at 125 g/ha: 125 g ai/ha
[6] = system: wheat (Triticum aestivum); experiment: Test A postemergence, wheat; assay type: in vivo; conditions: Triticum aestivum, post-emergence, 240 h, 0 to 100 scale (0 no effect, 100 complete control), read-out: Plant response rating, Wheat; for plant injury at 31 g/ha: 31 g ai/ha; for plant injury at 125 g/ha: 125 g ai/ha
kochia (Kochia scoparia) [7] = experiment: Test A preemergence, kochia; assay type: in vivo; conditions: Bassia scoparia, pre-emergence, 240 h, 0 to 100 scale (0 no effect, 100 complete control), read-out: Plant response rating, Kochia; for pest or weed control at 31 g/ha: 31 g ai/ha; for pest or weed control at 125 g/ha: 125 g ai/ha
[8] = system: pigweed (Amaranthus retroflexus); experiment: Test A preemergence, pigweed; assay type: in vivo; conditions: Amaranthus retroflexus, pre-emergence, 240 h, 0 to 100 scale (0 no effect, 100 complete control), read-out: Plant response rating, Pigweed; for pest or weed control at 31 g/ha: 31 g ai/ha; for pest or weed control at 125 g/ha: 125 g ai/ha
rice (Oryza sativa) = experiment: Test B flooded paddy test, rice; conditions: Oryza sativa, read-out: Plant response rating, Rice (0 to 100 scale, 0 is no effect, 100 is complete control)
[9] = system: barnyardgrass (Echinochloa crus-galli); experiment: Test A preemergence, barnyardgrass; assay type: in vivo; conditions: Echinochloa crus-galli, pre-emergence, 240 h, 0 to 100 scale (0 no effect, 100 complete control), read-out: Plant response rating, Barnyardgrass; for pest or weed control at 31 g/ha: 31 g ai/ha; for pest or weed control at 125 g/ha: 125 g ai/ha
[10] = system: ducksalad (Heteranthera limosa); experiment: Test B flooded paddy test, ducksalad; conditions: Heteranthera limosa, read-out: Plant response rating, Ducksalad (0 to 100 scale, 0 is no effect, 100 is complete control)
[11] = system: pigweed (Amaranthus retroflexus); experiment: Test A postemergence, pigweed; assay type: in vivo; conditions: Amaranthus retroflexus, post-emergence, 240 h, 0 to 100 scale (0 no effect, 100 complete control), read-out: Plant response rating, Pigweed; for pest or weed control at 31 g/ha: 31 g ai/ha; for pest or weed control at 125 g/ha: 125 g ai/ha
[12] = system: foxtail, green (green foxtail, Setaria viridis); experiment: Test A preemergence, foxtail, green; assay type: in vivo; conditions: Setaria, pre-emergence, 240 h, 0 to 100 scale (0 no effect, 100 complete control), read-out: Plant response rating, Foxtail, Green; for pest or weed control at 31 g/ha: 31 g ai/ha; for pest or weed control at 125 g/ha: 125 g ai/ha
[13] = system: ryegrass, Italian (Italian ryegrass, Lolium multiflorum); experiment: Test A preemergence, ryegrass, Italian; assay type: in vivo; conditions: Lolium multiflorum, pre-emergence, 240 h, 0 to 100 scale (0 no effect, 100 complete control), read-out: Plant response rating, Ryegrass, Italian; for pest or weed control at 31 g/ha: 31 g ai/ha; for pest or weed control at 125 g/ha: 125 g ai/ha
[14] = system: ryegrass, Italian (Italian ryegrass, Lolium multiflorum); experiment: Test A postemergence, ryegrass, Italian; assay type: in vivo; conditions: Lolium multiflorum, post-emergence, 240 h, 0 to 100 scale (0 no effect, 100 complete control), read-out: Plant response rating, Ryegrass, Italian; for pest or weed control at 31 g/ha: 31 g ai/ha; for pest or weed control at 125 g/ha: 125 g ai/ha
kochia (Kochia scoparia) [15] = experiment: Test A postemergence, kochia; assay type: in vivo; conditions: Bassia scoparia, post-emergence, 240 h, 0 to 100 scale (0 no effect, 100 complete control), read-out: Plant response rating, Kochia; for pest or weed control at 31 g/ha: 31 g ai/ha; for pest or weed control at 125 g/ha: 125 g ai/ha
[16] = system: galium (catchweed bedstraw, Galium aparine); experiment: Test A postemergence, galium; assay type: in vivo; conditions: Galium, post-emergence, 240 h, 0 to 100 scale (0 no effect, 100 complete control), read-out: Plant response rating, Galium; for pest or weed control at 31 g/ha: 31 g ai/ha; for pest or weed control at 125 g/ha: 125 g ai/ha

Row | Structure (SMILES) | pest or weed control at 250 g/ha [1] | Corn plant response rating (crop injury, 0 = no effect, 100 = complete kill) at 31 g/ha (corn (Zea mays)) | Corn plant response rating (crop injury, 0 = no effect, 100 = complete kill) at 125 g/ha (corn (Zea mays)) | pest or weed control at 31 g/ha [2] | pest or weed control at 125 g/ha [2] | pest or weed control at 31 g/ha [3] | pest or weed control at 125 g/ha [3] | pest or weed control at 31 g/ha [4] | pest or weed control at 125 g/ha [4] | pest or weed control at 31 g/ha [5] | pest or weed control at 125 g/ha [5] | plant injury at 31 g/ha [6] | plant injury at 125 g/ha [6] | pest or weed control at 31 g/ha (kochia (Kochia scoparia) [7]) | pest or weed control at 125 g/ha (kochia (Kochia scoparia) [7]) | pest or weed control at 31 g/ha [8] | pest or weed control at 125 g/ha [8] | plant injury at 250 g/ha (rice (Oryza sativa)) | pest or weed control at 31 g/ha [9] | pest or weed control at 125 g/ha [9] | further results
1 | O=C1NC(CCCC(F)(F)F)c2c(Oc3ncc(Cl)cn3)cccc21 (stereo not drawn) [Compound 13, 4-[(5-Chloro-2-pyrimidinyl)oxy]-2,3-dihydro-3-(4,4,4-trifluorobutyl)-1H-isoindol-1-one] | 0% | 0% | 0% | 0% | 0% | 0% | 0% | 0% | 0% | 0% | 0% | 0% | 0% | 0% | 0% | 0% | 0% | 0% | 0% | 0% | pest or weed control at 250 g/ha [10]: 0%; pest or weed control at 31 g/ha [11]: 0%; pest or weed control at 125 g/ha [11]: 10%; pest or weed control at 31 g/ha [12]: 0%; pest or weed control at 125 g/ha [12]: 0%; pest or weed control at 31 g/ha [13]: 0%; pest or weed control at 125 g/ha [13]: 0%; pest or weed control at 31 g/ha [14]: 0%; pest or weed control at 125 g/ha [14]: 0%; pest or weed control at 31 g/ha (kochia (Kochia scoparia) [15]): 0%; pest or weed control at 125 g/ha (kochia (Kochia scoparia) [15]): 0%; pest or weed control at 31 g/ha [16]: 0%; pest or weed control at 125 g/ha [16]: 0%
2 | O=C1OC(CCC(F)(F)F)c2c(Oc3ncc(Cl)cn3)cccc21 (stereo not drawn) [Compound 4, 4-[(5-Chloro-2-pyrimidinyl)oxy]-3-(3,3,3-trifluoropropyl)-1(3H)-isobenzofuranone] | 35% | 30% | 80% | 40% | 90% | 30% | 90% | 0% | 80% | 20% | 70% | 20% | 80% | 90% | 100% | 100% | 100% | 45% | 70% | 100% | pest or weed control at 250 g/ha [10]: 100%; pest or weed control at 31 g/ha [11]: 90%; pest or weed control at 125 g/ha [11]: 100%; pest or weed control at 31 g/ha [12]: 100%; pest or weed control at 125 g/ha [12]: 100%; pest or weed control at 31 g/ha [13]: 20%; pest or weed control at 125 g/ha [13]: 100%; pest or weed control at 31 g/ha [14]: 20%; pest or weed control at 125 g/ha [14]: 90%; pest or weed control at 31 g/ha (kochia (Kochia scoparia) [15]): 90%; pest or weed control at 125 g/ha (kochia (Kochia scoparia) [15]): 100%; pest or weed control at 31 g/ha [16]: 100%; pest or weed control at 125 g/ha [16]: 100%
3 | FC(F)(F)CCCC1OCc2cccc(Oc3ncc(Cl)cn3)c21 (stereo not drawn) [Compound 7, 5-chloro-2-[[1,3-dihydro-3-(4,4,4-trifluorobutyl)-4-isobenzofuranyl]oxy]-pyrimidine] | 40% | 20% | 40% | 10% | 70% | 20% | 60% | 0% | 0% | 0% | 0% | 10% | 30% | 0% | 100% | 20% | 100% | 40% | 20% | 90% | pest or weed control at 250 g/ha [10]: 100%; pest or weed control at 31 g/ha [11]: 80%; pest or weed control at 125 g/ha [11]: 100%; pest or weed control at 31 g/ha [12]: 80%; pest or weed control at 125 g/ha [12]: 100%; pest or weed control at 31 g/ha [13]: 0%; pest or weed control at 125 g/ha [13]: 50%; pest or weed control at 31 g/ha [14]: 20%; pest or weed control at 125 g/ha [14]: 60%; pest or weed control at 31 g/ha (kochia (Kochia scoparia) [15]): 90%; pest or weed control at 125 g/ha (kochia (Kochia scoparia) [15]): 100%; pest or weed control at 31 g/ha [16]: 50%; pest or weed control at 125 g/ha [16]: 100%
